According to patent US10179767B2 (GENENTECH, INC., priority 2015, dated 2019):

Target: T1, hNav1.7 (Homo sapiens, UniProt Q15858)
T1 construct: expressed in transfected cells
Test: Tritiated sulfonamide binding to membranes from cells expressing hNav1.7 and the β1 subunit (Nav 1.7 ligand binding assay, competitive)
Conditions: competition with 100 pM [3H]compound, room temperature, 18 h
Protocol: Tritiated Sulfonamide Binding to Membranes Isolated from Cells that Heterologously Express hNav1.7 and the β1 Subunit
Preparation of membranes containing recombinantly expressed sodium channels: Frozen recombinant cell pellets were thawed on ice and diluted to 4 times the cell pellet weight with ice cold 50 mM Tris HCl, pH 7.4 buffer. The cell suspensions were homogenized on ice using a motorized glass dounce homogeniser. Homogenates were further diluted 8.4 times with ice cold 50 mM Tris HCl, pH 7.4 buffer and then centrifuged at 200×g at 4° C. for 15 min. The supernatants were collected and centrifuged at 10000×g at 4° C. for 50 min. The pellets were then re-suspended in 100 mM NaCl, 20 mM Tris HCl, pH 7.4 buffer containing 1% v/v protease inhibitors (Calbiochem) and re-homogenized on ice. The homogenized membranes were then processed through a syringe equipped with a 26 gauge needle. Protein concentrations were determined by Bradford Assay and the membranes were stored at −80° C.
Radioligand Binding Studies:
Saturation experiments. A competitive NaV1.7 inhibitor having a methyl group was tritiated. Three tritiums were incorporated in place of methyl hydrogens to generate [^3H]compound. Binding of this radioligand was preformed in 5 mL borosilicate glass test tubes at room temperature. Binding was initiated by adding membranes to increasing concentrations of [^3H]compound in 100 mM NaCl, 20 mM Tris HCl, pH 7.4 buffer containing 0.01% w/v bovine serum albumin (BSA) for 18 h. Non-specific binding was determined in the presence of 1 μM unlabelled compound. After 18 h, the reactants were filtered through GF/C glass fiber filters presoaked in 0.5% w/v polyethylene imine Filters were washed with 15 mL ice cold 100 mM NaCl, 20 mM Tris HCl, pH7.4 buffer containing 0.25% BSA to separate bound from free ligand. [^3H]compound bound to filters was quantified by liquid scintillation counting.
Competitive Binding Experiments:
Binding reactions were preformed in 96-well polypropylene plates at room temperature for 18 h. In 360 μL, membranes were incubated with 100 pM [^3H]compound and increasing concentrations of Test Compound. Non-specific binding was defined in the presence of 1 μM unlabelled compound. Reactions were transferred and filtered through 96-well glass fiber/C filter plates presoaked with 0.5% polyethylene imine. The filtered reactions were washed 5 times with 200 μL ice cold buffer containing 0.25% BSA. Bound radioactivity was determined by liquid scintillation counting. Data Analysis: For saturation experiments, non-specific binding was subtracted from total binding to provide specific binding and these values were recalculated in terms of pmol ligand bound per mg protein. Saturation curves were constructed and dissociation constants were calculated using the single site ligand binding model: Beq=(Bmax*X)/(X+Kd), where Beq is the amount of ligand bound at equilibrium, Bmax is the maximum receptor density, Kd is the dissociation constant for the ligand, and X is the free ligand concentration. For competition studies percent inhibition was determined and IC50 values were calculated using a 4 parameter logistic model (% inhibition=(A+((B−A)/(1+((x/C)⨣D)))) using XLfit, where A and B are the maximal and minimum inhibition respectively, C is the IC50 concentration and D is the (Hill) slope.

T1 sequence (Q15858 whole entry): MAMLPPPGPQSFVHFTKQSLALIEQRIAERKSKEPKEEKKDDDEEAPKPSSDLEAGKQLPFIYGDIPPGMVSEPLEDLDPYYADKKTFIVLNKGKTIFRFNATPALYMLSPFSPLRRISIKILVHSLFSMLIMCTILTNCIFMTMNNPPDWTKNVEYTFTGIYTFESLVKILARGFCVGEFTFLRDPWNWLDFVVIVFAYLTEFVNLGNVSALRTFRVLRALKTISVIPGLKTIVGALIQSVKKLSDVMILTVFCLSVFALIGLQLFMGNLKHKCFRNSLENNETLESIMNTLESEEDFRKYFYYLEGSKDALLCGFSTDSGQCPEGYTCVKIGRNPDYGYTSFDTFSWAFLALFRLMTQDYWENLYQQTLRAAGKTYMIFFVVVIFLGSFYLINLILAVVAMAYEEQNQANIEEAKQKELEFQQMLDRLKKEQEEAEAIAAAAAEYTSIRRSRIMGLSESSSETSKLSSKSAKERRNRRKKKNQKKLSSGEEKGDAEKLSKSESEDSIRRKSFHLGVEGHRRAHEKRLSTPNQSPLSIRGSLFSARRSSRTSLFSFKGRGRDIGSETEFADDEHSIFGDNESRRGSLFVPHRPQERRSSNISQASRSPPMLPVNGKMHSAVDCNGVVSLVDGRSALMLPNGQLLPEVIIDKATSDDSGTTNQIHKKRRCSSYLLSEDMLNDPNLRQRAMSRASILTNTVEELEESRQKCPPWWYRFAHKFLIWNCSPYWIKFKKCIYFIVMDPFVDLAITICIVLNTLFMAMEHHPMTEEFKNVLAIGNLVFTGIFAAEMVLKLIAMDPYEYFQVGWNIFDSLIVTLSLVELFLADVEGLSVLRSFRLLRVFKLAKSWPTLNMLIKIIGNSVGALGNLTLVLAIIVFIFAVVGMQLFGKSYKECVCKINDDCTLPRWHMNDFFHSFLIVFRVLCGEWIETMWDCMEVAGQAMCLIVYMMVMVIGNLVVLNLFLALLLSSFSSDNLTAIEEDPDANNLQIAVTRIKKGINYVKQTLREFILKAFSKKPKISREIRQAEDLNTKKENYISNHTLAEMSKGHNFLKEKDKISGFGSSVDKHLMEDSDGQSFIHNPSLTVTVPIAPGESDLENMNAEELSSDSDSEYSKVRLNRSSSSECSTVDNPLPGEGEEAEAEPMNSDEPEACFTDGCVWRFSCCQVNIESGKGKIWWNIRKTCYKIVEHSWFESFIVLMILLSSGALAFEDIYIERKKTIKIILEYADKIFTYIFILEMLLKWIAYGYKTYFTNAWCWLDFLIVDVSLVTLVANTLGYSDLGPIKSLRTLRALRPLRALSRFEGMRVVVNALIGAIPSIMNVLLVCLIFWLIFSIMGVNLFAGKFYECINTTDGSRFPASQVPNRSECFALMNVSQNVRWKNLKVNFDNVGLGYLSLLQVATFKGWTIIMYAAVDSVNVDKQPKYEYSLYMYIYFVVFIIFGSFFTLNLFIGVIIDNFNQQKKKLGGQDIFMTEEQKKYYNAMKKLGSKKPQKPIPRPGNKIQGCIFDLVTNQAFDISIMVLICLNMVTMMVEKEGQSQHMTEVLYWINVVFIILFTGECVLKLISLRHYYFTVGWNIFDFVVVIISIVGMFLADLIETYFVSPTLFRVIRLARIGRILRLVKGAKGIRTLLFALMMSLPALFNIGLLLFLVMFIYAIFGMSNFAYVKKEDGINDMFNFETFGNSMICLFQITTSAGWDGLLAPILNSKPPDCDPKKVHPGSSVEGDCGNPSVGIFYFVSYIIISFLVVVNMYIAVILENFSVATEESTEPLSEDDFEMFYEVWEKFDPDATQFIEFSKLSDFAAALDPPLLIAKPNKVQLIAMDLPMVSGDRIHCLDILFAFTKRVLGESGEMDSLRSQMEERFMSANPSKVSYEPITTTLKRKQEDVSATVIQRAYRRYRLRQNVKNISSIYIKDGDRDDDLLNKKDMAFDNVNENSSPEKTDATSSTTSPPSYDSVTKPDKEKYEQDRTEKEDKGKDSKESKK
T1 sequence (Q07699 19-218 partner): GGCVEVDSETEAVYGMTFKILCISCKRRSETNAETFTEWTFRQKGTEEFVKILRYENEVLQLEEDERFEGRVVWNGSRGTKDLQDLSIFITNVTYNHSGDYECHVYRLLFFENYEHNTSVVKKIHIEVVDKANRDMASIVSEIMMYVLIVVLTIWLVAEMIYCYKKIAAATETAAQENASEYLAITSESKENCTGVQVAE

Row | IC50 | Compound
1 | 8.1 nM | CS(=O)(=O)NC(=O)c1ccc(OCC2CCN(Cc3cc(C(F)(F)F)ccc3Cl)CC2)c(C2CC2)c1 [Example 60, 4-((1-(2-chloro-5-(trifluoromethyl)benzyl)piperidin-4-yl)methoxy)-3-cyclopropyl-N-(methylsulfonyl)benzamide]
2 | 10 nM | CC(c1cc(Cl)cc(Cl)c1)N1CCC(COc2ccc(C(=O)NS(C)(=O)=O)cc2C2CC2)CC1 (stereo not shown) [Example 61, 3-cyclopropyl-4-((1-(1-(3,5-dichlorophenyl)ethyl)piperidin-4-yl)methoxy)-N-(methylsulfonyl)-benzamide]
3 | 9.8 nM | CS(=O)(=O)NC(=O)c1ccc(OCC2CCN(Cc3cc(C(F)(F)F)cc(Cl)c3F)CC2)c(C2CC2)c1 [Example 62, 4-((1-(3-chloro-2-fluoro-5-(trifluoromethyl)benzyl)piperidin-4-yl)methoxy)-3-cyclopropyl-N-(methylsulfonyl)benzamide]
4 | 7 nM | CS(=O)(=O)NC(=O)c1cc(C2CC2)c(OCC2(F)CCN(Cc3cc(C(F)(F)F)ccc3Cl)CC2)cc1F [Example 63, 4-((1-(2-chloro-5-(trifluoromethyl)benzyl)-4-fluoropiperidin-4-yl)methoxy)-5-cyclopropyl-2-fluoro-N-(methylsulfonyl)benzamide]
